Results from US11472843B2, “Malacidins and methods of use” (The Rockefeller University, priority 2017, dated 2022).

Assays:
[1] = Complex formation with cell wall precursors (TLC mobility shift), lipid II; type: binding
Method: Binding of malacidin to C55-P and lipid II was evaluated by incubating 1 nmol of each purified precursor with 0.5 nmol of malacidin or daptomycin in 100 mM Tris-HCl, pH 7.5, 0.1% Triton X-100, 13 mM MgCl2, and with or without 25 mM CaCl2, for 60 min at 37° C. Subsequently, the mixture was extracted twice with n-BuOH/6 M pyridinium acetate buffer, pH 4.2 (3:1, v/v). The butanol fraction was evaporated and the residue was dissolved in CHCl3/methanol (1:1, v/v). The resuspension was analysed for the loss of unbound malacidin or daptomycin to a complex by TLC analysis using chloroform/methanol/water/ammonia (88:48:10:1, v/v/v/v) as the solvent and detection by 254/366 nm visualization. Experiments were performed with biological replicates.

S. aureus NRS146 = experiment: MIC assay, S. aureus NRS146; type: cell-based, Staphylococcus aureus; conditions: β-lactams
Method: (§1) MIC assays were performed in duplicate in 96-well microtiter plates on the basis of the protocol recommended by the Clinical and Laboratory Standards Institute (Cockerill, 2012, Clinical and Laboratory Standards Institute). All presented data are the average of at least three independent assays. Stock solutions of malacidin or daptomycin (2 mg ml^−1 in H2O) were added to the first well in a row and serially diluted (twofold per transfer) across the microtiter plate. CaCl2 was supplemented to media at a final concentration of 15 mM and fetal bovine serum (ATCC) was added to media (1:10) to test the effect of serum. Overnight cultures of bacteria were diluted 5,000-fold, and 50 μl was used as an inoculum in each well. MIC values were determined by visual inspection after 18 h incubation (30° C., static growth). For the enhanced calcium titration experiments, standard MIC assays were performed with methicillin-resistant Staphylococcus aureus (MRSA) PFGE strain type USA300 in media supplemented with CaCl2 at: 25.0, 18.8, 14.1, 7.03, 3.52, 2.50, 1.76, 0.880, 0.440, 0.250 and 0 mM. To assess the effects of monovalent and divalent cations on malacidin activity, standard MIC assays were performed with MRSA USA300 in media supplemented with 15 mM CaCl2, MgCl2, MnCl2, ZnCl2, SrCl2, NaCl and KCl. To evaluate the effects of pulmonary surfactants on activity against a community-acquired pneumonia-causing pathogen, standard MIC assays were performed with Streptococcus pneumoniae TCH8431 in media supplemented with both 15 mM CaCl1 and Survanta (beractant) at a final concentration of 5, 1, 0.5, 0.25 or 0% (volume/volume (v/v) percent).

E. faecium VRE = experiment: MIC assay, E. faecium VRE; type: cell-based, Enterococcus faecium; conditions: Vancomycin (VRE)
Method: as §1

S. aureus USA300 = experiment: MIC assay, S. aureus USA300 (MRSA); type: cell-based, Staphylococcus aureus
Method: as §1

Escherichia coli DH5α = experiment: MIC assay, E. coli DH5α; type: cell-based
Method: as §1

E. faecium Com15 = experiment: MIC assay, E. faecium Com15; type: cell-based, Enterococcus faecium
Method: as §1

S. aureus BAA-42 = experiment: MIC assay, S. aureus BAA-42; type: cell-based, Staphylococcus aureus; conditions: β-lactams
Method: as §1

HEK293 cells = type: cell-based, human; conditions: viability, in the presence of calcium, 4.5 h
Method: (§2) Cytotoxicity against human cell lines was tested using an ATP release assay, CelITiter-Glo (Promega), according to the manufacturer's instructions. HEK293 cells (293FT, Thermo Fisher Scientific, no. R700-07) and MRC5 cells (ATCC CCL-171) were grown in complete DMEM media supplemented with 10% FBS, and were inspected visually for authentication and tested for mycoplasma contamination using a MycoAlert detection kit (Lonza). Cells were grown to confluence, trypsinized, counted and plated in 384-well cell culture plates at an appropriate density (2,500 cells per well for HEK293 and 1000 cells per well for MRC5). The test compound was added 24 h later in the presence of calcium, and viability was determined after 4.5 h of incubation. Experiments were performed with biological replicates. Haemolytic activity was evaluated by a red blood cell disc diffusion assay. Twenty-microlitre stocks of malacidin A and Triton X-100 were infused on filter discs, dried completely and then overlaid on 5% sheep blood agar plates (Hardy Diagnostics). The plates were incubated for 24 h at 20° C., and then checked for lysis.

MRC5 cells = type: cell-based, human
Method: as §2

[2] = tested on: red blood cell (5% sheep blood agar plates); type: cell-based
Method: as §2

[3] = tested on: Streptococcus mutans UA159; experiment: MIC assay, S. mutans; type: cell-based
Method: as §1, with “To evaluate the effects of pulmonary surfactants on activity against a community-acquired pneumonia-causing pathogen, standard MIC assays were performed with Streptococcus pneumoniae TCH8431 in media supplemented with both 15 mM CaCl1 and Survanta (beractant) at a final concentration of 5, 1, 0.5, 0.25 or 0% (volume/volume (v/v) percent).” left out

[4] = tested on: Candida albicans ATCC 1884; experiment: MIC assay, C. albicans; type: cell-based
Method: as §1

[5] = tested on: Acinetobacter baumannii ATCC 17978; experiment: MIC assay, A. baumannii; type: cell-based; conditions: range of at least three independent experiments
Method: as §1

## malacidin A
[1]; 1 nmol precursor, 0.5 nmol antibiotic
  Lipid-II-binding activity (TLC mobility shift): lipid-II-dependent disappearance of the malacidin band
[1]; with or without 25 mM CaCl2
  Calcium dependence of the interaction with lipid II: calcium-dependent
S. aureus NRS146; S. aureus NRS146, vancomycin (VISA), 15 mM CaCl2
  MIC: 0.4-0.8 μg m1^−1
S. aureus NRS146; Staphylococcus aureus NRS146, Vancomycin (VISA)
  MIC: 0.4 to 0.8 µg/mL
E. faecium VRE; E. faecium VRE, 15 mM CaCl2
  MIC: 0.4-0.8 μg m1^−1
E. faecium VRE; Enterococcus faecium VRE
  MIC: 0.8 to 2.0 µg/mL
S. aureus USA300; MRSA USA300, CaCl2 0 to 25.0 mM
  Dependence of antibiosis (MIC) against MRSA on calcium: calcium-dependent
S. aureus USA300; S. aureus USA300 + 10% serum, 15 mM CaCl2
  MIC: 0.2-0.8 μg m1^−1
S. aureus USA300; S. aureus USA300, acquired resistance β-lactams, 15 mM CaCl2
  MIC: 0.2-0.8 μg m1^−1
S. aureus USA300; Staphylococcus aureus + 10% Serum, USA300
  MIC: 0.2 to 0.8 µg/mL
S. aureus USA300; Staphylococcus aureus USA300, β-lactams (Methicillin, Oxacillin, Penicillin)
  MIC: 0.2 to 0.8 µg/mL
Escherichia coli DH5α
  MIC: >100 µg/mL
E. faecium Com15; E. faecium Com15, 15 mM CaCl2
  MIC: 0.8-2.0 μg m1^−1
E. faecium Com15; Enterococcus faecium Com15
  MIC: 0.8 to 2.0 µg/mL
S. aureus BAA-42; S. aureus BAA-42, 15 mM CaCl2
  MIC: 0.2-0.8 μg m1^−1
S. aureus BAA-42; Staphylococcus aureus BAA-42
  MIC: 0.2 to 0.8 µg/mL
HEK293 cells
  IC50: >100 μg m1^−1
MRC5 cells
  MIC (a = Viability assessed by ATP release assay): >100a μg mL^−1
MRC5 cells; MRC5, viability, in the presence of calcium, 4.5 h
  IC50: >100 μg m1^−1
[2]
  Haemolytic activity: no hemolytic effects
[3]; S. mutans, 15 mM CaCl2
  MIC: 0.1-0.2 μg m1^−1
[3]; Streptococcus mutans UA159
  MIC: 0.1 to 0.2 µg/mL
[4]; C. albicans, 15 mM CaCl2
  MIC: >100 μg m1^−1
[4]; Candida albicans ATCC 1884
  MIC: >100 µg/mL
[5]
  MIC: >100 µg/mL
